The term IC50 denotes the midpoint of a concentration-inhibition curve. High values mean a need for much substance, low ones inhibition by little substance.

Each structure is given as a SMILES string. Counter-ions that a name gives are not always drawn.

The target of the test is T1, proton pump (H+/K+-ATPase) (Sus scrofa, UniProt P19156).
T1 construct: Gastric vesicles were prepared from hog stomach via centrifugal separation; from tissue; host or cells: hog stomach (gastric vesicles, method of Rabon et al. 1988)
T1 sequence (P19156 whole entry): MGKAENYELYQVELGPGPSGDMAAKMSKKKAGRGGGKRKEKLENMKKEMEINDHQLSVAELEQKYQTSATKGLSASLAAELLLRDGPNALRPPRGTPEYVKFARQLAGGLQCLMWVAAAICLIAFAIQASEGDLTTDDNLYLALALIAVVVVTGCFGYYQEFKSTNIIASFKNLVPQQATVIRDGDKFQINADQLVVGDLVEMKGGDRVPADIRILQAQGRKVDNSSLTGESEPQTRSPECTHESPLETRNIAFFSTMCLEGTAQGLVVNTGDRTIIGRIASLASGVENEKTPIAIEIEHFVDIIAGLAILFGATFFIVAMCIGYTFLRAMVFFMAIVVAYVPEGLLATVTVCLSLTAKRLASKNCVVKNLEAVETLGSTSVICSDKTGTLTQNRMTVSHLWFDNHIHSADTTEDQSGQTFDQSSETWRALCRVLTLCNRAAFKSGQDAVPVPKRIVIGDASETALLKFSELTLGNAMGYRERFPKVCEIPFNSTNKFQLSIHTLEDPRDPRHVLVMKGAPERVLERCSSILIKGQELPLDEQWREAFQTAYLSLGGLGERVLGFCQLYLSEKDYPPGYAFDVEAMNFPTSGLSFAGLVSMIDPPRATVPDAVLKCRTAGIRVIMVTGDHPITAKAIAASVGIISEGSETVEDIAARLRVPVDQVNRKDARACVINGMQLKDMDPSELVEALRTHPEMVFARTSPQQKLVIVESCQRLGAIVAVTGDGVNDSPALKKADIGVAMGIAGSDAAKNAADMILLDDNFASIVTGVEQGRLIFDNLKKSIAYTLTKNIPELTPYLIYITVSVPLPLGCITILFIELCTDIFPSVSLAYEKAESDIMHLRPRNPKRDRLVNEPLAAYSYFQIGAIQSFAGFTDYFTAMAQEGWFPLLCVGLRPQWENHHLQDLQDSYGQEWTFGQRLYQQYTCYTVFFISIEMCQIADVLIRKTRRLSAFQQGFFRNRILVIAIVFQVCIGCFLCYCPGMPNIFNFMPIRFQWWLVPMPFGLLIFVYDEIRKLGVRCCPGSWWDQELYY
T1 sequence (P18434 whole entry partner): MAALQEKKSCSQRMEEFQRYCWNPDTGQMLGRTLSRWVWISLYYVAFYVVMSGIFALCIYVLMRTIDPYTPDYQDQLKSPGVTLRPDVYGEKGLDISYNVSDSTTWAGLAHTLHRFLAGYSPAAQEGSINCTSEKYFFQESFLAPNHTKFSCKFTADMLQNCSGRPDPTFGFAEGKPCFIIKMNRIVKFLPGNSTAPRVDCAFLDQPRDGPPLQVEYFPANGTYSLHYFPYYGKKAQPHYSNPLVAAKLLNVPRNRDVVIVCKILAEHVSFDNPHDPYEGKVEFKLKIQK
Briefly: Measurement of inhibitory effects on proton pump (H+/K+-ATPase) activities. The following applies: hog gastric vesicles, K+-specific H+/K+-ATPase activity, Tris-HCl buffer pH 7.4, 37° C. for 40 minutes, malachite green Pi readout. The format is biochemical. The method, boiled down: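 Hog gastric vesicles in 60 mmol/l Tris-HCl pH 7.4 with 0.5% DMSO were treated with compounds at room temperature; reaction was started with 10 μl of 10 mmol/l ATP stock. Released Pi was read at 570 nm, K+-specific activity taken as the ±K+ difference. IC50 from 4-parameter logistic fit.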
Take `CNCc1cn(S(=O)(=O)c2ccccc2F)c2cc(Nc3ccc(C)cc3F)ccc12` [Example 224, N-(2-fluoro-4-methylphenyl)-1-((2-fluorophenyl)sulfonyl)-3-((methylamino)methyl)-1H-indol-6-amine hydrochloride]: the IC50 came to 3300 nM.
With `CNCc1cn(S(=O)(=O)c2cccnc2)c2cc(Nc3ccc(C#N)cc3F)ccc12` [Example 38, 3-fluoro-4-((3-((methylamino)methyl)-1-(pyridin-3-ylsulfonyl)-1H-indol-6-yl)amino)benzonitrile hydrochloride] the figure was 2190 nM; with `CNCc1cn(S(=O)(=O)c2cccc(Br)c2)c2cc(Nc3ccc(C)cc3F)ccc12` [Example 228, 1-((3-bromophenyl)sulfonyl)-N-(2-fluoro-4-methylphenyl)-3-((methylamino)methyl)-1H-indol-6-amine hydrochloride], 900 nM.
In the case of `CNCc1cn(S(=O)(=O)c2cccnc2)c2cc(Nc3c(C)cccc3Cl)ccc12` [Example 61, N-(2-chloro-6-methylphenyl)-3-((methylamino)methyl)-1-(pyridin-3-ylsulfonyl)-1H-indol-6-amine hydrochloride] it was 290 nM.
In the case of `CNCc1cn(S(=O)(=O)c2cccc(Cl)c2)c2cc(Nc3cccnc3OC)ccc12` [Example 157, 1-((3-chlorophenyl)sulfonyl)-N-(2-methoxypyridin-3-yl)-3-((methylamino)methyl)-1H-indol-6-amine hydrochloride] it was 380 nM; in that of `CCNCc1cn(S(=O)(=O)c2cccc(C(F)(F)F)c2)c2cc(Nc3ccc(OC)nc3Cl)ccc12` [Example 317, N-(2-chloro-6-methoxypyridin-3-yl)-3-((ethylamino)methyl)-1-((3-(trifluoromethyl)phenyl)sulfonyl)-1H-indol-6-amine], 1920 nM.
For the compound `CCc1cc(C#N)ccc1Nc1ccc2c(CNC)cn(S(=O)(=O)c3cccnc3)c2c1` [Example 37, 3-ethyl-4-((3-((methylamino)methyl)-1-(pyridin-3-ylsulfonyl)-1H-indol-6-yl)amino)benzonitrile hydrochloride], 500 nM corresponded to half-maximal inhibition (IC50). Compared with the last compound, the IC50 is about 3.8-fold lower.
With `CNCc1cn(S(=O)(=O)c2cccc(Cl)c2)c2cc(Nc3ccc(C)nc3F)ccc12` [Example 158, 1-((3-chlorophenyl)sulfonyl)-N-(2-fluoro-6-methylpyridin-3-yl)-3-((methylamino)methyl)-1H-indol-6-amine hydrochloride] the figure was 410 nM.
`CNCc1cn(S(=O)(=O)c2cccnc2)c2cc(Nc3ccc(OC)cc3)ccc12` [Example 12, N-(4-methoxyphenyl)-3-((methylamino)methyl)-1-(pyridin-3-ylsulfonyl)-1H-indol-6-amine hydrochloride] gave an IC50 of 420 nM.
With `CNCc1cn(S(=O)(=O)c2cccnc2)c2cc(Nc3c(F)cc(F)cc3Cl)ccc12` [Example 83, N-(2-chloro-4,6-difluorophenyl)-3-((methylamino)methyl)-1-(pyridin-3-ylsulfonyl)-1H-indol-6-amine hydrochloride] the figure was 1030 nM.
`Cc1ccc(Nc2ccc3c(C(=O)N(C)C)cn(S(=O)(=O)c4cccnc4)c3c2)c(F)c1F` [Example 329, 6-((2,3-difluoro-4-methylphenyl)amino)-N,N-dimethyl-1-(pyridin-3-ylsulfonyl)-1H-indol-3-carboxamide]: inhibition was half-maximal at 42000 nM (IC50).
With `CNCc1cn(S(=O)(=O)c2cccc(C(F)(F)F)c2)c2cc(Nc3ccc(C(F)(F)F)nc3Cl)ccc12` [Example 195, N-(2-chloro-6-(trifluoromethyl)pyridin-3-yl)-3-((methylamino)methyl)-1-((3-(trifluoromethyl)phenyl)sulfonyl)-1H-indol-6-amine hydrochloride] the figure was 1270 nM; with `CNCc1cn(S(=O)(=O)c2cccc(OC(F)F)c2)c2cc(-c3cnc(OC)nc3)ccc12` [Example 266, 1-(1-((3-(difluoromethoxy)phenyl)sulfonyl)-6-(2-methoxypyrimidin-5-yl)-1H-indol-3-yl)-N-methylmethanamine hydrochloride], 45000 nM.
With `CNCc1cn(S(=O)(=O)c2cccnc2)c2cc(Nc3ccc(Oc4ccc(Cl)cc4)cc3)ccc12` [Example 19, N-(4-(4-chlorophenoxy)phenyl)-3-((methylamino)methyl)-1-(pyridin-3-ylsulfonyl)-1H-indol-6-amine hydrochloride] the figure was 1910 nM.
With `CNCc1cn(S(=O)(=O)c2ccc(F)cc2)c2cc(Cc3ccc(C)cc3Cl)ccc12` [Example 306] the figure was 680 nM; with `CNCc1cn(S(=O)(=O)c2cccc(F)c2)c2cc(Nc3ccc(C)cc3OC(F)(F)F)cnc12` [Example 340, 1-((3-fluorophenyl)sulfonyl)-N-(4-methyl-2-(trifluoromethoxy)phenyl)-3-((methylamino)methyl)-1H-pyrrolo[3,2-b]pyridin-6-amine hydrochloride], 570 nM; with `CNCc1cn(S(=O)(=O)c2cccnc2)c2cc(Cc3ccc(OC(F)(F)F)cc3OC)ccc12` [Example 281, 1-(6-(2-methoxy-4-(trifluoromethoxy)benzyl)-1-(pyridin-3-ylsulfonyl)-1H-indol-3-yl)-N-methylmethanamine hydrochloride], 1870 nM.
Regarding `CNCc1cn(S(=O)(=O)c2cccc(Cl)c2)c2cc(Nc3ccc(OC(F)(F)F)cc3C)ccc12` [Example 154, 1-((3-chlorophenyl)sulfonyl)-N-(2-methyl-4-(trifluoromethoxy)phenyl)-3-((methylamino)methyl)-1H-indol-6-amine hydrochloride], the concentration for half-maximal inhibition (IC50) stood at 480 nM.
The compound `CNCc1cn(S(=O)(=O)c2cccnc2)c2cc(Nc3ccc(C(F)(F)F)cc3)ccc12` [Example 13, 3-((methylamino)methyl)-1-(pyridin-3-ylsulfonyl)-N-(4-(trifluoromethyl)phenyl)-1H-indol-6-amine hydrochloride] gave an IC50 of 1080 nM.
Take `CNCc1cn(S(=O)(=O)c2ccccc2Cl)c2cc(Nc3ccc(C)cc3F)ccc12` [Example 225, 1-((2-chlorophenyl)sulfonyl)-N-(2-fluoro-4-methylphenyl)-3-((methylamino)methyl)-1H-indol-6-amine hydrochloride]: the midpoint of inhibition, the IC50, lay at 2060 nM. Compared with the last compound, the IC50 is about 1.9-fold higher.
In the case of `CNCc1cn(S(=O)(=O)c2cccc(Cl)c2)c2cc(Nc3ccc(Cl)cc3C(F)(F)F)ccc12` [Example 151, N-(4-chloro-2-(trifluoromethyl)phenyl)-1-((3-chlorophenyl)sulfonyl)-3-((methylamino)methyl)-1H-indol-6-amine hydrochloride] it was 510 nM; in that of `CNCc1cn(S(=O)(=O)c2cccnc2)c2cc(Cc3ccccc3)ccc12` [Example 268, 1-(6-benzyl-(pyridin-3-ylsulfonyl)-1H-indol-3-yl)-N-methylmethanamine hydrochloride], 760 nM; in that of `CNCc1cn(S(=O)(=O)c2cccnc2)c2cc(Oc3ccc(C(F)(F)F)cc3Cl)ccc12` [Example 311, 1-(6-(2-chloro-4-(trifluoromethyl)phenoxy)-1-(pyridin-3-ylsulfonyl)-1H-indol-3-yl)-N-methylmethanamine hydrochloride], 4170 nM.
With `CNCc1cn(S(=O)(=O)c2cccc(OC)c2)c2cc(Nc3ccc(Cl)cc3F)ccc12` [Example 164, N-(4-chloro-2-fluorophenyl)-1-((3-methoxyphenyl)sulfonyl)-3-((methylamino)methyl)-1H-indol-6-amine hydrochloride] the figure was 7060 nM; with `CNCc1cn(S(=O)(=O)c2cccnc2)c2cc(Nc3ccc(-c4cccc(OC)c4)cc3)ccc12` [Example 15, N-(3′-methoxy-[1,1′-biphenyl]-4-yl)-3-((methylamino)methyl)-1-(pyridin-3-ylsulfonyl)-1H-indol-6-amine hydrochloride], 1850 nM.
Take `CNCc1cn(S(=O)(=O)c2cccnc2)c2cc(Nc3cccnc3F)ccc12` [Example 106, N-(2-fluoropyridin-3-yl)-3-((methylamino)methyl)-1-(pyridin-3-ylsulfonyl)-1H-indol-6-amine hydrochloride]: the half-maximal inhibitory concentration (IC50) is 3380 nM. This IC50 lies about 1.8-fold higher than the previous one.
In the case of `CNCc1cn(S(=O)(=O)c2cccc(OC(F)(F)F)c2)c2cc(Nc3ccc(OC)cc3F)ccc12` [Example 199, N-(2-fluoro-4-methoxyphenyl)-3-(methylamino)methyl)-1-((3-(trifluoromethoxy)phenyl)sulfonyl)-1H-indol-6-amine hydrochloride] it was 340 nM; in that of `CNCc1cn(S(=O)(=O)c2cccnc2)c2cc(Nc3ccc(F)cc3Cl)cnc12` [Example 347, N-(2-chloro-4-fluorophenyl)-3-((methylamino)methyl)-1-(pyridin-3-ylsulfonyl)-1H-pyrrolo[3,2-b]pyridin-6-amine hydrochloride], 180 nM.
